Measurements from patent publication US20100040568A1, “Steroidal compounds as melanogenesis modifiers and uses thereof” (SkinMedica, Inc., priority 2008, published 2010).

Columns and labels:
[1] = tested on: melan-a cells; assay: Melanin assay in cultured murine melanocytes (melan-a); format: cell-based; conditions: 72 hours; for % of control remaining @ 1 μM / % of control remaining @ 5 μM: melanin, melan-a cells
Procedure: The Spectrum Collection library consisting of 2000 drug compounds or natural products was screened to identify novel pigmentation inhibitors or stimulators in cultured murine melanocytes (melan-a). Compounds were dissolved in dimethylsulfoxide (DMSO) to a final concentration of 10 mM. Screening was performed with cultured melanocytes in 24-well plates followed by melanin assay (see below). A minimum change of 50% in melanin formation was established as significant for a pigmentation inhibitor or stimulator. DMSO was used as a negative control and the widely used depigmenting agent, hydroquinone, was used as a positive control on every plate. […] Melan-a cells were plated at 5×10^4 cells per well in 1 ml of culture media in 24-well plates the day before adding the library compounds. All compounds were added at the indicated final concentrations. Cells were harvested after 72 hours of incubation, and melanin assay was performed. For the primary and secondary screening, cells were harvested and dissolved in 200 μl of 2N NaOH in 20% DMSO at 70° C. A 180-μl aliquot of the resulting solution was measured for absorbance at 490 nm. Cells are harvested in extraction buffer (1% Triton X-100, 50 mM Tris, 2 mM EDTA, 150 mM NaCl, pH 7.5) containing a complete protease inhibitor cocktail (Roche). The lysates were centrifuged at 14,000 rpm for 10 minutes at 4° C. BCA protein assay kit (Pierce) was used to measure the protein concentrations of the supernatants, and bovine serum albumin was used as a standard. […] A 180-μl aliquot of the resulting solution was measured for absorbance at 490 nm. The melanin contents were normalized to the total amount of protein. The IC50 value for inhibition of cellular melanin synthesis for conessine was determined by culturing melan-a cells with various concentrations of conessine for 72 hours. Briefly, melan-a cells were plated at 5×10^4 cells per well in 1 ml of culture media in 24-well plates the day before adding conessine. Conessine was added at the indicated final concentrations. DMSO was used as a negative control. Cells were harvested after 72 hours of incubation, and spectrophotometric melanin assay was performed on cell pellets. The melanin contents were normalized to the total amount of protein. Cell viability was determined by using the CellTiter 96 aqueous nonradioactive cell proliferation assay. […] Licorice extract was tested under similar conditions as conessine for its ability to decrease melanin synthesis in melan-a cells (FIG. 11c). Melan-a cells were plated at 5×10^4 cells per well in 1 ml of culture media in 24-well plates the day before adding Licorice extract. 70% ethanol was used as control and the Licorice extract was diluted in cell culture media at the indicated concentrations. […] Cells were harvested after 72 hours of incubation, and spectrophotometric melanin assay was performed on cell pellets. The melanin contents were normalized to the total amount of protein. Cell viability was determined by using the CellTiter 96 aqueous nonradioactive cell proliferation assay.

[2] = tested on: UV-induced pigmentation; conditions: topical application of 0.5%; cited from earlier work

| SMILES | % of control remaining @ 1 μM [1] | % of control remaining @ 5 μM [1] | effect on melanin synthesis in melan-a cells ([1]; indicated concentrations) | inhibition of UV-induced pigmentation [2] |
| --- | --- | --- | --- | --- |
| C[C@H]1C2CCC3[C@@H]4CC=C5C[C@@H](N(C)C)CC[C@]5(C)C4CC[C@@]32CN1C (mixture of isomers) [Compound 2, Con-5-enine, 3β-(dimethylamino)-, (±)-(8Cl) (Registry No: 14546-12-4)] | 78.4 % of control | 38.5 % of control |  |  |
| Oc1ccc(O)cc1 [hydroquinone, reference compound] |  |  | significantly inhibited melanogenesis in a dose-dependent manner |  |
| CC1C2CCC3C4CC=C5CC(N(C)C)CCC5(C)C4CCC32CN1C (stereo not drawn) [Compound 3, N,N-Dimethylcon-5-enin-3-amine] | 59.2 % of control | 28.4 % of control |  |  |
| CC1(C)C=Cc2c(ccc3c2OC[C@@H](c2ccc(O)cc2O)C3)O1 [glabridin] |  |  |  | can inhibit the UV-induced pigmentation |
